Results reported in patent publication US9096593B2, “Compounds and methods for kinase modulation, and indications therefor” (Plexxikon Inc., priority 2009, dated 2015).

How the values were obtained:
Flt-3 kinase = Flt-3 kinase (Homo sapiens (Human), UniProt P36888); experiment: Flt-3 kinase biochemical activity assay (AlphaScreen, biotin-(E4Y)10 phosphorylation); details: 100 μM ATP
Description: In one assay the biochemical activity IC50 values are determined with respect to inhibition of Flt-3 kinase activity, where inhibition of phosphorylation of a peptide substrate is measured as a function of compound concentration. Compounds to be tested, dissolved in DMSO (1 μL), are added to a white 384-well plate (Costar #3705). Working stocks of Flt-3 kinase (Invitrogen), biotin-(E4Y)10 substrate (Upstate Biotech, Cat#12-440), and ATP (Sigma, Cat#A-3377) are prepared in 25 mM Hepes pH 7.5, 5 mM MgCl2, 5 mM MnCl2, 1 mM DTT, and 0.01% Tween-20. All components are added to the 384-well plate for a final concentration of 1 ng/well Flt-3, 30 nM biotin-(E4Y)10 and 100 μM ATP in a volume of 20 μL. Each sample is at 5% DMSO. The plate is then incubated for 1 hour at room temperature. Just before use, working stocks of donor and acceptor beads from the AlphaScreen PY20 Detection Kit (PerkinElmer, Cat#676601M) are prepared in 25 mM Hepes pH 7.5, pH 7.4, 100 mM EDTA. 0.3% BSA. To stop the reaction, the plate is uncovered in the dark and 5 μL of Donor Beads solution (Streptavidin beads) is added to each well. The plate is incubated at room temperature for 20 minutes. Five microliters of Acceptor Beads solution (PY20 coated beads) are then added to each well. The final concentration of each bead is 10 μg/mL. The plates are incubated at room temperature for 60 minutes. Fluorescence signal is recorded on the Envision reader. Phosphorylated substrate results in binding of the PY20 antibody and association of the donor and acceptor beads such that signal correlates with kinase activity. The signal vs. compound concentration is used to determine the IC50.

[1] = Turbidity assay of relative solubility in aqueous buffers; assay type: physicochemical; details: for turbidity threshold (L, M, H) 1.4: pH 1.4 as headed (method: SGF pH 1.5); for turbidity threshold (L, M, H) 4.5: pH 4.5 (SIF); for turbidity threshold (L, M, H) 6.8: pH 6.8 (SIF); for turbidity threshold (L, M, H) 7.4: pH 7.4 (HEPES)
Method in brief: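 DMSO stocks (25 mM) were serially diluted 1:1 and spiked into SGF pH 1.5 (0.5M NaCl), SIF pH 4.5 and 6.8 (0.05M NaH2PO4) or HEPES pH 7.4 (10 mM HEPES, 150 mM NaCl). Absorbance was read at 490, 535 and 650 nm. Value is the concentration crossing OD 0.01, averaged over the three wavelengths.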

Flt-3 kinase, sequence (P36888 27-993): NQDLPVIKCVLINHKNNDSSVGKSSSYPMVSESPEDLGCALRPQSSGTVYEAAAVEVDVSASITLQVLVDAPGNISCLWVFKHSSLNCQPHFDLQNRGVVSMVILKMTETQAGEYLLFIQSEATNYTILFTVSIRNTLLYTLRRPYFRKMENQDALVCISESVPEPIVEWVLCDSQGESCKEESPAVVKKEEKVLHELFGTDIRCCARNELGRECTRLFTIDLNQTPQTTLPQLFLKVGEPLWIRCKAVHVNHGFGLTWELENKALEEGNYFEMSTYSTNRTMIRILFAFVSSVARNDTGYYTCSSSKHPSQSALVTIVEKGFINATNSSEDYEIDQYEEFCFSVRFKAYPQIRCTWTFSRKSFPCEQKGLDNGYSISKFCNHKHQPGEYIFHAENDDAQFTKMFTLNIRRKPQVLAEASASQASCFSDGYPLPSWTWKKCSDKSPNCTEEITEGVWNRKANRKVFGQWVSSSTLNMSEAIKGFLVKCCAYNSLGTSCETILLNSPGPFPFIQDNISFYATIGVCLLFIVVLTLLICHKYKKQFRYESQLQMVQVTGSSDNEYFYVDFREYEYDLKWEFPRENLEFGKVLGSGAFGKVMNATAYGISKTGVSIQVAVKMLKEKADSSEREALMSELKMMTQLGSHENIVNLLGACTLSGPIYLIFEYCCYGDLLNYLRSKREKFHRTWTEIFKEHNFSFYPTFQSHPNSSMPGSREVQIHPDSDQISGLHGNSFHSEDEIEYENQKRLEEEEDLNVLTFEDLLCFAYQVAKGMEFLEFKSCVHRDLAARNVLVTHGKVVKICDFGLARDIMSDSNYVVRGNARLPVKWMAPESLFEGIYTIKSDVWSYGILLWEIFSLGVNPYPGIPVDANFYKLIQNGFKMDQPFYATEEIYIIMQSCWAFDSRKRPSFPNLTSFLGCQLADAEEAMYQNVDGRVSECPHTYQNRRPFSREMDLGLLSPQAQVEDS

Structure (SMILES) | IC50 (Flt-3 kinase) [µM] | turbidity threshold (L, M, H) 1.4 [1] | turbidity threshold (L, M, H) 4.5 [1] | turbidity threshold (L, M, H) 6.8 [1] | turbidity threshold (L, M, H) 7.4 [1]
COc1ccc(CNc2ncc(Cc3c[nH]c4ncc(Cl)cc34)cn2)cn1 [Compound P-2038, [5-(5-Chloro-1H-pyrrolo[2,3-b]pyridin-3-ylmethyl)-pyrimidin-2-yl]-(6-methoxy-pyridin-3-ylmethyl)-amine] | < 0.1 | H (high solubility if the threshold concentration is >250 μM) | L (low solubility if the threshold concentration is <31.3 μM) | L (low solubility if the threshold concentration is <31.3 μM) | L (low solubility if the threshold concentration is <31.3 μM)
COc1ccc(CNc2ncc(Cc3c[nH]c4ncc(C)cc34)cn2)cn1 [Compound P-2057, (6-Methoxy-pyridin-3-ylmethyl)-[5-(5-methyl-1H-pyrrolo[2,3-b]pyridin-3-ylmethyl)-pyrimidin-2-yl]-amine] | < 0.1 | H (high solubility if the threshold concentration is >250 μM) | L (low solubility if the threshold concentration is <31.3 μM) | L (low solubility if the threshold concentration is <31.3 μM) | M (moderate solubility if the threshold concentration is 31.3 μM to 250 μM)
COc1ncc(CNc2ccc(Cc3c[nH]c4ncc(Cl)cc34)c(F)n2)cc1F [Compound P-2165, [5-(5-Chloro-1H-pyrrolo[2,3-b]pyridin-3-ylmethyl)-6-fluoro-pyridin-2-yl]-(5-fluoro-6-methoxy-pyridin-3-ylmethyl)-amine] | < 0.1 | L (low solubility if the threshold concentration is <31.3 μM) | L (low solubility if the threshold concentration is <31.3 μM) | L (low solubility if the threshold concentration is <31.3 μM) | L (low solubility if the threshold concentration is <31.3 μM)
